# Measurements: patent publication US6218597A, “Transgenic model and treatment for heart disease” (University Technology Corporation, priority 1998, dated 2001)
# pKd: −log10 of the molar value.
# Biological target: βAR (β-adrenergic receptor), cardiac sarcolemmal membranes of wild-type FVB/N mice
# Conditions: read-out: Kd for ICYP
structure (smiles),measurement,value
"CC(C)(C)NCC(O)COc1cccc2[nH]c(C#N)c([125I])c12 (stereo not shown) [ICYP, ^125 I-iodocyanopindolol]",pKd,~10.70
